Measured values reported in patent US12338266B2 (GENETIC S.P.A., priority 2019, dated 2025).
Entries after “also recorded” stand apart in the source; their conditions may differ.

Experiments:
glucocorticoid receptor = molecular target: T1, glucocorticoid receptor (Homo sapiens, UniProt P04150); conditions: higher than the parent compound; cited from earlier work
T1 sequence (P04150 1-777): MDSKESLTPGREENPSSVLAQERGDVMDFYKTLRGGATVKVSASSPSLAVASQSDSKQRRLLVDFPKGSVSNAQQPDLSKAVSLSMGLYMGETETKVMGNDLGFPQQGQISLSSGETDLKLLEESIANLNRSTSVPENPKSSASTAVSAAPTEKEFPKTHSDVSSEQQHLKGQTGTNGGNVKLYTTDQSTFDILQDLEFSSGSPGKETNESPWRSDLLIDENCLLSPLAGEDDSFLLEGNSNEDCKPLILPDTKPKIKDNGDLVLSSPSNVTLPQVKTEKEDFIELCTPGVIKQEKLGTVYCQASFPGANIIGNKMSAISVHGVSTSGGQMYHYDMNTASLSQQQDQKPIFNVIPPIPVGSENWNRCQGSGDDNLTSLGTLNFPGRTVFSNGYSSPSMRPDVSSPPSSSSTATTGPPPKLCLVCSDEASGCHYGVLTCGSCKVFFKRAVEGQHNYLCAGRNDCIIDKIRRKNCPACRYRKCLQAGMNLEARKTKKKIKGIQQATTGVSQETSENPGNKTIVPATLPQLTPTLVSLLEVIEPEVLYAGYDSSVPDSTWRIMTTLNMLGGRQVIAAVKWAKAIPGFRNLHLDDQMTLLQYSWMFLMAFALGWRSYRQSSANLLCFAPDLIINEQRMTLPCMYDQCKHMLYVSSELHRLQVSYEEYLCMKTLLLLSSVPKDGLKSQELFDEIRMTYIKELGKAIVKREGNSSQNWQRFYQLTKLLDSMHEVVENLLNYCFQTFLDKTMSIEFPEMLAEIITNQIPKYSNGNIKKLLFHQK

[1] = 10 mg orally once daily at bedtime; cited from earlier work
[2] = system: mice with OVA-induced allergic asthma; test: Plasma IgE levels by ELISA in OVA-sensitized mice (Protocol-1); assay type: in vivo, Balb/c mice; conditions: 1 mg/kg i.p.; FIG. 6C, 7C
Description: Balb/c mice (8-9 weeks old, Charles River, Calco, Italy) were housed in the animal care facility at the Department of Pharmacy of the University of Naples. Italy in a controlled environment (temperature 21±2° C. and humidity 60±10%) and provided with standard rodent chow and water. All animals were allowed to acclimate for four days prior to experiments and were subjected to 12 h light-12 h dark schedule. Each mouse was assigned an identity number and randomtzed to different groups so that all experiments were carried out in a blinded manner. The experimental procedures were approved by the Italian Ministry according to International and National law and policies (EU Directive 2010/63/EU and Italian DL 26/2014 for animal experiments, ARRIVE guidelines and the Basel declaration including the 3R concept). Animal studies are reported in compliance with the ARRIVE guidelines. Balb/c mice is the most widely mouse strain used to study asthma-like features in vivo and to investigate the undedying molecular and cellular mechanisms of allergen sensitization. Mice were treated subcutaneously (s.c.) with 0.4 mL (100 μg) of ovalbumin (OVA) complexed with alum (13 mg mL^−1) (OVA group) at day 0 and 7. Chicken egg-white ovalbumin (OVA: grade V. cat. A5503, Sigma Chemical Co., St. Louis, MO) was dissolved in sterile phosphate buffered saline (PBS) solution (250 μg/1 ml) and Al(OH)3 was added (at 13 mg/ml). This mix was used to induce the allergic sensitization of the animals by subcutaneous injection. OVA was dissolved at 3% in sterile PBS solution and this solution was nebulized (as the immunological challenges). At day 21 mice were exposed to OVA challenge for three days and then sacrificed. This experimental procedure induces in the mice an increase in plasma IgE levels and this effect is by itself sufficient to induce a significant increase in bronchial hyper-responsiveness and pulmonary inflammation, typical hallmarks of asthma. A group of animals was treated s.c. with saline (vehicle group). […] Animals were killed at selected time points by overdose of enflurane and bronchi and blood collected.
Blood was collected by intracardiac puncture using citrate as anticoagulant. Plasma was obtained by centrifugation at 800×g at 4′C for 10 minutes and immediately frozen at −80° C. Total IgE levels were measured by means of ELISA using matched antibody pairs (BD Biosciences Pharmingen San Jose, Calif.).

[3] = system: mice with OVA-induced allergic asthma; test: Lung hyperreactivity / Penh by whole body plethysmography (Protocol-2); assay type: in vivo, Balb/c mice; conditions: for basal Penh measurement (non-challenged with methacholine): FIG. 9B
Description: (§1) Male Balb/c SPF mice (26*2 g, 6 week-old) were purchased from the animal house facilities at the Faculty of Medicine (University of Sāo Paulo, Brazil). They were group-housed in a temperature-controlled room at 22° C. with a 12/12-hour light/dark cycle and allowed free access to food and water. The study is in agreement with the Ethical Principles for Animal Research established by the Brazilian College for Animal Experimentation (COBEA). According to the internal laboratory rules, euthanasia will be performed if severe distress related to the test agents developed during the experiment. Mice were sensitized with two subcutaneous injections of 0.2 ml of OVA/Al(OH)3, with an interval of 7 days (Sham animals received the Al(OH)3 suspension in PBS with no OVA). Chicken egg-white ovalbumin (OVA; grade V, cat. A5503, Sigma Chemical Co., St. Louis, Mo.) was dissolved in sterile phosphate buffered saline (PBS) solution (50 μg/ml) and Al(OH)3 was added (at 8 mg/ml). This mix was used to induce the allergic sensitization of the animals by subcutaneous injection. OVA was dissolved at 1% in sterile PBS solution and this solution was nebulized (as the immunological challenges). Seven days after the second sensitization (i.e., 3rd week), the animals were nebulized twice a week with the 1% OVA solution (Sham and untreated OVA groups were nebulized with PBS) during 20 minutes for the next 4 weeks. Thirty minutes before the challenges (OVA nebulization) and daily during the next 4 weeks, mice were intra-nasally treated (10 μl/animal as 5 μl/nostril) with the respective compounds/vehicle. […] Animals were killed at selected time points by overdose of enflurane and BAL and blood collected.
Airway responsiveness in conscious, spontaneously breathing animals was measured at the end of the 6th week (i.e., after 4 weeks OVA challenges+treatments), 24 h after the last OVA/PBS challenge via whole body plethysmography (Buxco Europe Ltd, Winchester, UK). Experiments were carried out in a quiet room by an investigator who was unaware of the nature of treatments. Aerosolized saline (50 μl/mouse during 60 s) and then the muscarinic agonist metacholine (MCh) at increasing concentrations (3.12, 6.25, 12.5 and 25.0 mg/ml in PBS) was nebulized through an inlet of the main chamber for 3 min each to induce bronchoconstriction and readings were taken and averaged for 6 min following each nebulization. After 20 min. the baseline values usually returned at the end of this period. Enhanced pause (Penh) was measured as an indicator of bronchoconstriction and consequent increase of airway resistance as: Penh=[(expiration time/relaxation time)−1][…].

[4] = system: mice with OVA-induced allergic asthma; test: Total and differential leukocyte counts in BAL fluid (Protocol-2); assay type: in vivo, Balb/c mice; conditions: 4 weeks; for BAL eosinophils (OVA-induced increase): 100 nmol/animal/day intranasal, FIG. 10
Description: as §1
After Penh evaluation, the mice were anesthetized with inhaled isofluorane (5% v/v in O2) and blood samples were collected from the descending abdominal aorta. The mice were then euthanized by exsanguination and bronchoalveolar lavage (BAL) was performed by exposing and cannulating the trachea with a polyethylene tube (1 mm outer diameter) connected to a syringe. The lungs were washed by flushing 300 μL of heparin-containing PBS solution (20 UI/mL). The retrieved BAL lavage aliquots were obtained and the same procedure was repeated four additional times. The samples were centrifuged (1000 g for 10 min) and the cell pellet was resuspended in 200 μL of PBS solution, Total cell counts were determined using a Neubauer chamber, and differential counting was carried out in cytospin (Fanem Mod 2400; Sāo Paulo, Brazil) preparations stained with May-Grünwald dye. Leukocytes were classified based on morphological criteria.

[5] = intranasal administration at recommended doses; cited from earlier work
[6] = in vivo; cited from earlier work

**Q.** With `C[C@]12C=CC(=O)C=C1CC[C@@H]1[C@@H]2[C@@H](O)C[C@@]2(C)[C@H]1C[C@H]1O[C@@H](C3CCCCC3)O[C@]12C(=O)CO` [Des-ciclesonide, C21-desisobutyryl-ciclesonide] as the molecule, how does the “affinity for the glucocorticoid receptor relative to the parent compound (ciclesonide)” value (glucocorticoid receptor) read?
**A.** The value was 120 times.

**Q.** With `CC(C)(O)c1ccccc1CC[C@@H](SCC1(CC(=O)[O-])CC1)c1cccc(/C=C/c2ccc3ccc(Cl)cc3n2)c1.[Na+]` [Montelukast sodium, (R,E)-2-(1-((1-(3-(2-(7-chloroquinolin-2-yl)vinyl)phenyl)-3-(2-(2-hydroxypropan-2-yl)phenyl)propylthio)-methyl)cyclopropyl)acetic acid monosodium salt] as the molecule, how does the “variables of asthma control (FEV1, daytime and night time symptom scores, as-needed β-agonist use)” value [1] read?
**A.** Its value is “improvement in variables of asthma control”.

**Q.** What does the source list for `CC(C)(O)c1ccccc1CC[C@@H](SCC1(CC(=O)O)CC1)c1cccc(/C=C/c2ccc3ccc(Cl)cc3n2)c1` [montelukast, (R,E)-2-(1-((1-(3-(2-(7-chloroquinolin-2-yl)vinyl)phenyl)-3-(2-(2-hydroxypropan-2-yl)phenyl)propylthio)-methyl)cyclopropyl)acetic acid]?
**A.** allergen induced plasma IgE increase [2]: did not affect IgE; basal Penh measurement (non-challenged with methacholine) ([3]; 10 nmol/animal/day intranasal, daily for 4 weeks): significantly reduced the basal Penh measurement; basal Penh measurement (non-challenged with methacholine) ([3]; 10 nmol/animal/day intranasal, daily for 4 weeks, listed as Montelukast): slightly decrease the basal (non-challenged with methacholine) response; Penh parameters following methacholine challenge (Emax, AUC) ([3]; 10 nmol/animal/day intranasal, FIG. 9C-D): did not affect the parameters measured following methacholine challenge; direct effects on lung function ([3]; 10 nmol/day/animal intranasal): negligible direct effects on lung function; BAL eosinophils / eosinophil recruitment to the lungs ([4]; 10 nmol/animal/day intranasal, FIG. 11): significantly reduced; also recorded: significant inhibitory effects on eosinophil recruitment to the lungs

**Q.** With `CC(C)C(=O)OCC(=O)[C@@]12O[C@H](C3CCCCC3)O[C@@H]1C[C@H]1[C@@H]3CCC4=CC(=O)C=C[C@]4(C)[C@H]3[C@@H](O)C[C@@]12C` [ciclesonide, (11β,16α)-16,17-[[(R)-cyclohexylmethylene]bis(oxy)]-11-hydroxy-21-(2-methyl-1-oxopropoxy)pregna-1,4-diene-3,20-dione] as the molecule, how does the “allergen induced plasma IgE increase” value [2] read?
**A.** Its value is “significantly inhibited allergen induced IgE increase”.

**Q.** And the “airway responsiveness, Penh (basal, methacholine Emax and AUC)” value ([3]; 100 nmol/day/animal intranasal, daily for 4 weeks, FIG. 8A-D)?
**A.** Its value is “Significant reduction of this response; also recorded: significantly reduced”.

**Q.** What about the “BAL eosinophils (OVA-induced increase)” value [4] of the same molecule?
**A.** Its value is “significantly reduced”.

**Q.** What about the “BAL eosinophils (OVA-induced increase)” value ([4]; listed as Ciclesonide) of the same molecule?
**A.** Its value is “significantly reduced this increase”.

**Q.** What about the “serum concentrations of ciclesonide” value [5] of the same molecule?
**A.** The value was “negligible serum concentrations”.

**Q.** What about the cortisol suppression [6] of the same molecule?
**A.** The cortisol suppression was “comparable with placebo”.
